Results from US20210392889A1, “COMPOSITIONS COMPRISING PYRIDINE CARBOXYLATE HERBICIDES WITH PDS INHIBITOR HERBICIDES” (Corteva Agriscience LLC, priority 2018, published 2021).

Experiments:
[1] = system: spring rape (BRSNN, Brassica napus); assay: Greenhouse postemergence herbicidal effect, visual injury after 20-22 d; format: in vivo
Outline: (§1)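 Visual injury ratings (0 = no injury, 100 = complete kill) were made against solvent-blank controls on sub-irrigated greenhouse plants. Spray solutions contained the pyridine carboxylate with cloquintocet-mexyl plus 1.25% v/v seed-oil adjuvant, in two- or three-way combinations with a PDS inhibitor, applied at 187 L/ha to plants at the second or third true leaf stage.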

[2] = system: wild buckwheat (POLCO, Polygonum convolvulus); assay: as above; format: in vivo; settings: for visual injury: Table 1
Outline: as §1

spring wheat (TRZAS) = assay: Greenhouse postemergence phytotoxicity on crop, visual injury after 20-22 d; format: in vivo, Triticum aestivum; settings: for visual injury: Table 1
Description: Seeds of the desired test plant species were planted in a 90:10% v/v (volume/volume) mixture of PRO-MIX® BX (Premier Tech Horticulture, Quakertown, Pa., USA) and PROFILE® GREENS GRADE™ (Profile Products LLC, Buffalo Grove, Ill., USA) planting mixture, which typically has a pH of 5.2 to 6.2 and an organic matter content of at least 50 percent, in plastic pots with a surface area of 103.2 square centimeters (cm^2). In some aspects, to ensure good germination and healthy plants, a fungicide treatment and/or other chemical or physical treatment was applied. The plants were grown for 7-36 days (d) in a greenhouse with an approximate 14-hour (h) photoperiod which was maintained at about 23° C. during the day and 22° C. during the night. Nutrients and water were added on a regular basis and supplemental lighting was provided with overhead metal halide 1000-Watt lamps as necessary. The plants were employed for testing when they reached the second or third true leaf stage.
Emulsifiable concentrates of each of each pyridine carboxylate herbicide (Compound A or Compound B) were prepared at 100 grams acid equivalent per liter (g ae/L). The emulsifiable concentrates also included a safener, cloquintocet-mexyl, at 120 grams active ingredient per liter (g ai/L). An aliquot of each emulsifiable concentrate was placed in a 25 mL glass vial and diluted with an aqueous mixture of 1.25% (v/v) ACTIROB® B esterified rapeseed oil (Bayer Crop Science, Research Triangle Park, N.C., USA) or MSO® Concentrate with LECI-TECH® methylated soybean oil (Loveland Products, Loveland, Colo., USA) to obtain concentrated stock solutions at the highest application rate for each herbicide, based upon a 12 milliliter (mL) application volume at a rate of 187 liters per hectare (L/ha). The concentrated stock solutions were further diluted with an aqueous mixture of 1.25% v/v ACTIROB® B or MSO® Concentrate with LECI-TECH® to obtain stock solutions at reduced application rates for each herbicide. Spray solutions of the herbicide combinations (Compound A or Compound B plus PDS inhibitor herbicide) were prepared by adding weighed amounts or aliquots of the PDS inhibitor herbicide to the stock solutions of Compound A or Compound B to form 12-mL spray solutions in two- or three-way combinations.
The spray solutions were applied to the plant material with an overhead Mandel track sprayer equipped with 8002E nozzles calibrated to deliver 187 L/ha over an application area of 0.503 square meters (m^2) at a spray height of 18 inches ([…] centimeters (cm)) above the average plant canopy. Control plants were sprayed in the same manner with the solvent blank. All pyridine carboxylate herbicide (component a) application rates are given as “g ae/ha” and all PDS inhibitor herbicide (component b) application rates are given as “g ai/ha.”
The treated plants and control plants were placed in a greenhouse as described above and watered by sub-irrigation to prevent wash-off of the test compounds. After 20-22 d, the condition of the test plants as compared with that of the control plants was determined visually and scored on a scale of 0 to 100 percent where 0 corresponds to no injury and 100 corresponds to complete kill.

Question: For N#CCOC(=O)c1nc(-c2ccc3cc[nH]c3c2F)c(F)c(N)c1Cl [Compound A, cyanomethyl 4-amino-3-chloro-5-fluoro-6-(7-fluoro-1H-indol-6-yl)pyridine-2-carboxylate], which “visual injury Obs” value ([1]; 7.5 g/ha, Table 2) is on record?
Answer: 55%

Question: And the “visual injury Obs” value ([1]; 7.5 g/ha, Table 3)?
Answer: 55%

Question: And the “visual injury Obs” value ([1]; 7.5 g/ha, Table 4)?
Answer: 73%

Question: And the “visual injury Obs” value ([1]; 10 g/ha, Table 2)?
Answer: 60%

Question: What about the “visual injury Obs” value ([1]; 10 g/ha, Table 3) of the same compound?
Answer: 70%

Question: What about the “visual injury Obs” value ([1]; 10 g/ha, Table 4) of the same compound?
Answer: 83%

Question: What about the visual injury ([2]; 7.5 g/ha) of the same compound?
Answer: 78%

Question: What about the “visual injury Obs” value ([2]; 7.5 g/ha, Table 2) of the same compound?
Answer: 70%

Question: What about the “visual injury Obs” value ([2]; 7.5 g/ha, Table 3) of the same compound?
Answer: 88%

Question: And the “visual injury Obs” value ([2]; 7.5 g/ha, Table 5)?
Answer: 68%

Question: What about the “visual injury Obs” value ([2]; 7.5 g/ha, Table 6) of the same compound?
Answer: 68%

Question: What about the “visual injury Obs” value ([2]; 7.5 g/ha, Table 7) of the same compound?
Answer: 60%

Question: What about the “visual injury Obs” value ([2]; 7.5 g/ha, Table 8) of the same compound?
Answer: 63%

Question: And the visual injury ([2]; 10 g/ha)?
Answer: 93%

Question: What about the “visual injury Obs” value ([2]; 10 g/ha, Table 2) of the same compound?
Answer: 78%

Question: And the “visual injury Obs” value ([2]; 10 g/ha, Table 3)?
Answer: 96%

Question: What about the “visual injury Obs” value ([2]; 10 g/ha, Table 5) of the same compound?
Answer: 70%

Question: And the “visual injury Obs” value ([2]; 10 g/ha, Table 6)?
Answer: 70%

Question: What about the “visual injury Obs” value ([2]; 10 g/ha, Table 7) of the same compound?
Answer: 70%

Question: What about the “visual injury Obs” value ([2]; 10 g/ha, Table 8) of the same compound?
Answer: 60%

Question: What about the “visual injury Obs” value ([2]; 15 g/ha, Table 8) of the same compound?
Answer: 63%

Question: What about the visual injury (spring wheat (TRZAS); 7.5 g/ha) of the same compound?
Answer: 0%

Question: What about the “visual injury Obs” value (spring wheat (TRZAS); 7.5 g/ha, Table 2) of the same compound?
Answer: 0%

Question: And the “visual injury Obs” value (spring wheat (TRZAS); 7.5 g/ha, Table 3)?
Answer: 0%

Question: And the “visual injury Obs” value (spring wheat (TRZAS); 7.5 g/ha, Table 5)?
Answer: 0%

Question: What about the “visual injury Obs” value (spring wheat (TRZAS); 7.5 g/ha, Table 6) of the same compound?
Answer: 0%

Question: What about the “visual injury Obs” value (spring wheat (TRZAS); 7.5 g/ha, Table 7) of the same compound?
Answer: 0%

Question: What about the “visual injury Obs” value (spring wheat (TRZAS); 7.5 g/ha, Table 8) of the same compound?
Answer: 3%

Question: What about the visual injury (spring wheat (TRZAS); 10 g/ha) of the same compound?
Answer: 0%

Question: And the “visual injury Obs” value (spring wheat (TRZAS); 10 g/ha, Table 2)?
Answer: 0%

Question: What about the “visual injury Obs” value (spring wheat (TRZAS); 10 g/ha, Table 3) of the same compound?
Answer: 0%

Question: And the “visual injury Obs” value (spring wheat (TRZAS); 10 g/ha, Table 5)?
Answer: 0%

Question: And the “visual injury Obs” value (spring wheat (TRZAS); 10 g/ha, Table 6)?
Answer: 0%

Question: And the “visual injury Obs” value (spring wheat (TRZAS); 10 g/ha, Table 7)?
Answer: 0%

Question: What about the “visual injury Obs” value (spring wheat (TRZAS); 10 g/ha, Table 8) of the same compound?
Answer: 3%

Question: And the “visual injury Obs” value (spring wheat (TRZAS); 15 g/ha, Table 8)?
Answer: 0%
